The source of these data is patent US8648169B2, “Methods of use of Trk receptor modulators” (The Royal Institution for the Advancement of …, priority 2006, dated 2014).

“And” between values parts separate entries of the source, which are not always exact repeats. Equal values may be shown once. “Also recorded” adds a separate entry of the source. No end group written: not given here. Bounds are passed on as bounds.

The subject of one test is CNS. The note with it: cited from earlier work.
For test [1], the system named is retinal ganglion cells (RGCs). The test is described as follows: RGC loss in ocular hypertension (glaucoma) model, retrogradely labeled surviving RGCs counted in flat mounted retinas.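 For all read-outs here: female Wistar rats aged 8 weeks with three episcleral veins cauterized in the right eye, sham-operated left eye as normal IOP control, at least six retinas averaged per group.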 The note with it: for % RGCs loss at day 49 (vs. Normal) / % RGCs loss at day 42 (vs. Norma): cauterized eye; for RGC loss (% of normal IOP): +daily betaxolol (days 4-35).
Method: Using retrograde tracers, surviving RGCs were labeled at the cell soma and flat retinal spreads were analyzed for RGC numbers (Table 2).
Surviving RGCs, identified by retrograde labeling, were counted at day 42 post-surgery. In this protocol, the TrkA agonist or controls were not given between days 21 and 42, to evaluate whether any protection could be long-lived. […] Each data point represents the average of at least 6 retinas/experimental group±sd. […] Peptidomimetic D3 (TrkA agonist) or controls were injected intraocularly, each injection at 1 μg in 1 μl. […] Retrogradely labeled surviving RGCs at day 42 post-cauterization were counted in flat mounted retinas (except rows 3 and 4 that were terminated at days 14 and 28). Two investigators counted the RGCs, with one unaware of the groups.
Episcleral cauterization was performed under anesthesia in Wistar rats, female, 8 weeks of age. After a conjunctival incision, extra-ocular muscles were isolated and the major limbal draining veins were identified based on location, relative immobility, larger caliber and branching pattern. Cauterization of three episcleral vessels in the right eye were done with a 30″ cautery tip. The left eye in each animal was used as normal IOP control after sham-surgery (conjuctival incisions with no cauterization). […] Planar ophthalmoscopy was used to confirm normal perfusion of the retina at elevated IOP. […] IOP was measured using a Tonopen XL tonometer under light anesthesia (intramuscular injection of ketamine, 4 mg/kg; xylazine, 0.32 mg/kg; and acepromazine, 0.4 mg/kg). Initially IOP was measured daily (three consecutive readings are taken each time) and then weekly until termination.
A puncture was made in the eye wall with a 30 G needle to place a cannula in the orbit. The tip of the needle was inserted at a 45° angle through the sclera into the vitreous body. This route of administration avoided injury to eye structures.
Another test addresses T1, p75 receptor (Homo sapiens, UniProt P08138).
T1 sequence (P08138 29-427): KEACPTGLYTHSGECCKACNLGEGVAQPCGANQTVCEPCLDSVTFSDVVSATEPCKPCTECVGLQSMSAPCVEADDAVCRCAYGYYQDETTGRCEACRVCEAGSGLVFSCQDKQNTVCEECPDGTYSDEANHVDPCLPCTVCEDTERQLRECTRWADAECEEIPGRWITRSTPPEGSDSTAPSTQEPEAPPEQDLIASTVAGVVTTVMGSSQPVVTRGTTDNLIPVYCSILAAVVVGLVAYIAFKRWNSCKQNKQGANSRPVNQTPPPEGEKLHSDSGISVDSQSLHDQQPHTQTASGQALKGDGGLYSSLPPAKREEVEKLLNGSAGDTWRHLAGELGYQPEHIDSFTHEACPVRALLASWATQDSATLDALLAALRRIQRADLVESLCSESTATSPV
The note with it: cited from earlier work.

The target of the next test is TrkA (Homo sapiens, UniProt P04629). The note with it: irrespective of whether the p75 receptor is expressed; cited from earlier work.
Sequence of TrkA (P04629 33-796, species assumed): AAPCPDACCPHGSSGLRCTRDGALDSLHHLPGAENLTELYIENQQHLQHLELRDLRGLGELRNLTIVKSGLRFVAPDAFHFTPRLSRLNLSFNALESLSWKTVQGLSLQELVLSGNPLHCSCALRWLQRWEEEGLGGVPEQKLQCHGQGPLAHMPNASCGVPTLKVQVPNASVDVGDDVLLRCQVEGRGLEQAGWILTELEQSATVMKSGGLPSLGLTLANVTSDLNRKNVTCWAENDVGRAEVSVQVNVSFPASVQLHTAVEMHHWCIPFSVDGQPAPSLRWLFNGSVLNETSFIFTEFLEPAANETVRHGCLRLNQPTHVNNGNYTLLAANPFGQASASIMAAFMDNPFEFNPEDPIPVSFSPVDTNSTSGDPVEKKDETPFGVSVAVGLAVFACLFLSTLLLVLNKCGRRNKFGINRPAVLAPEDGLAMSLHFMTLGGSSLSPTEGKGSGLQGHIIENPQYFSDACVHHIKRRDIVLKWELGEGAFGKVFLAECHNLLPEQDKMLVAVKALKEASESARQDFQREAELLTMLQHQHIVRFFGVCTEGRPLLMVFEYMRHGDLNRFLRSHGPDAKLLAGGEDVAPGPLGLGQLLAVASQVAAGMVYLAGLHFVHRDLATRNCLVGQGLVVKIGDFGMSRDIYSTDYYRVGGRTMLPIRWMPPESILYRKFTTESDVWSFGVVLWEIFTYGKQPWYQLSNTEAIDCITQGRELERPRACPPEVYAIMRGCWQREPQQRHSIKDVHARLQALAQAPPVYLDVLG
Test [2] concerns axotomized RGCs. As to the kind of experiment: RGC survival in optic nerve axotomy. The class given is in vivo. From the text:
It is important to contrast the results in this glaucoma model with those published in optic nerve axotomy (where the optic nerve is sectioned or crushed and RGC axons are damaged). The two are very different models of RGC damage, where glaucoma is chronic and progressive and is an intraocular disease while axotomy is acute and is an extraocular disease. Thus, in optic nerve axotomy NTFs have been applied successfully. The survival of an axotomized optic nerve was promoted by NGF, BDNF, NT-4, CNTF, as well as bFGF, and GDNF.

In test [3] the test system is intraocular pressure (IOP) of rat eyes. From the text: High IOP was induced in rat eyes, by reducing aqueous humor outflow through episcleral vein cauterization, while the contralateral eyes were sham-operated and were used as controls (FIG. 2).
In test [4] the test system is axotomized RGCs. The conditions noted are these: other studies; cited from earlier work.
The mark [5] stands for this setting: daily betaxolol days 14-49 (~17 days of high IOP), intraocular injections at days 14 & 21.
The mark [6] stands for this setting: daily betaxolol days 14 to 42 (~17 days of high IOP), intraocular injections 1 μg at days 14 & 21.
Setting [7] is: no betaxolol, 42 days of high IOP, intraocular injections 1 μg at days 14 & 21.
Where [8] appears, read: no betaxolol, 49 days of high IOP, intraocular injections at days 14 & 21.

Regarding `NCCCC[C@@H]1NC(=O)C(CCC(=O)O)NC(=O)c2cc([N+](=O)[O-])ccc2OCCC(C(=O)NCC(=O)O)NC1=O` (stereo partly drawn) [D3], the “effect on cholinergic neurons in the CNS” value in the test on CNS (evaluated previously, spatial memory tests) is “protect the number, phenotype, and function of cholinergic neurons”. Besides, the “% RGCs loss at day 49 (vs. Normal)” value turned out to be 18 ± 6% in test [1] (setting [5]) and 26 ± 6% in test [1] (setting [8]). The “% RGCs loss at day 42 (vs. Norma)” value in test [1] (setting [6]) is 11% and 11 ± 4%; in test [1] (setting [7]) it was 29% and 29 ± 3%. Also, the “protection of RGCs, formula (testloss−day14loss)/(day42loss−day14loss)*100” value in test [1] (day 42, intraocular injections at days 14 and 21, no betaxolol) is reported as approximately 25%. In test [1] (day 42, intraocular injections at days 14 and 21 in combination with daily betaxolol), the “protection of RGCs” value was more than 90%. Besides, the “effect on RGC survival / apoptosis” value in test [1] (day 49 glaucoma, intraocular injections at days 14 and 21, alone or with betaxolol) is “markedly reduced RGC apoptosis”. In addition, the “binding to p75” value on p75 receptor was “does not bind”. Besides, the “activity at TrkA” value at TrkA was “selective partial agonist”. For the same compound, in the test on axotomized RGCs [2], the “survival of axotomized RGCs” value is recorded as “strong survival-promoting effects”.

In the case of “NGF: Nerve Growth Factor, neurotrophin that binds TrkA and p75”, the “% RGCs loss at day 42 (vs. Norma)” value was determined as 19 ± 4% in test [1] (setting [6]) and 42 ± 5% in test [1] (setting [7]). Further, in test [1] (day 42 glaucoma, intraocular injections, with or without betaxolol), the “protection of RGCs from death” value is reported as “did not protect”.

`CC(C)NCC(O)COc1ccc(CCOCC2CC2)cc1` (stereo not drawn) [Betaxolol, betaxolol, reference compound]: the “% RGCs loss at day 49 (vs. Normal)” value was 27 ± 5% in test [1] (daily betaxolol days 14-49 alone, no intraocular injection) and 27% in test [1] (daily betaxolol days 14-49 alone, no intraocular injection, listed as betaxolol). Moreover, the “% RGCs loss at day 42 (vs. Norma)” value in test [1] (daily betaxolol days 14 to 42 alone, no intraocular injection) worked out at 21 ± 2%; in test [1] (daily betaxolol days 14 to 42 alone, no intraocular injection, listed as betaxolol), 21%. Further, the “RGC loss (% of normal IOP)” value in test [1] (day 0 post-cautery) is 0%; in test [1] (day 7 post-cautery), 3 ± 3%; in test [1] (day 14 post-cautery), 4 ± 3%; in test [1] (day 21 post-cautery), 7 ± 3%; in test [1] (day 28 post-cautery) it was 10 ± 4%; in test [1] (day 35 post-cautery) it was 14 ± 2%. For the same compound, the “RGC loss (% of normal IOP)” value in test [1] (day 42 post-cautery) is given as 20 ± 5%. In addition, the “IOP by day 7” value in test [3] (cauterized rats receiving daily topical betaxolol) is reported as “normal IOPs”. Moreover, the “effect on normal IOP of non-cauterized eyes” value in test [3] (daily topical betaxolol, normal eyes) is given as “no significant effect”.

Take “YCATDIKGKECY (also: cyclic) [C(28-35) peptide, cyclic peptide analog of NGF β-turn 28-35, p75 receptor antagonist]”: in the test with axotomized RGCs [4], the “protection of RGCs in vivo in optic nerve axotomy” value is given as “short-term protection”. Besides, the “in vivo stability and efficacy in the CNS” value in the test on CNS (previous in vivo studies) was “in vivo stability and efficacy”. The “% RGCs loss at day 49 (vs. Normal)” value in test [1] (setting [5]) was determined as 29 ± 4%; in test [1] (setting [8]), 32 ± 11%. The “effect on RGC survival / apoptosis” value in test [1] (rat, in vivo) is on record as “did not enhance RGC survival; also recorded: did not prevent or reduce RGC death”. The “effect on p75-NGF interactions” value with p75 receptor is reported as “antagonist”.
